In ChEMBL document CHEMBL2074109, “ATP-Dependent efflux of CPT-11 and SN-38 by the multidrug resistance protein (MRP) and its inhibition by PAK-104P” (Mol Pharmacol, 1999):

Target: Multidrug resistance-associated protein 1 (Homo sapiens, UniProt P33527)
Experiment: TP_TRANSPORTER: intracellular accumulation in KB-3-1 and MRP1-expressing KB-3-1 cells
Type: functional, cell-based, KB-3-1; KB/MRP
Conditions: kb/mrp

Sequence of Multidrug resistance-associated protein 1 (P33527 whole entry): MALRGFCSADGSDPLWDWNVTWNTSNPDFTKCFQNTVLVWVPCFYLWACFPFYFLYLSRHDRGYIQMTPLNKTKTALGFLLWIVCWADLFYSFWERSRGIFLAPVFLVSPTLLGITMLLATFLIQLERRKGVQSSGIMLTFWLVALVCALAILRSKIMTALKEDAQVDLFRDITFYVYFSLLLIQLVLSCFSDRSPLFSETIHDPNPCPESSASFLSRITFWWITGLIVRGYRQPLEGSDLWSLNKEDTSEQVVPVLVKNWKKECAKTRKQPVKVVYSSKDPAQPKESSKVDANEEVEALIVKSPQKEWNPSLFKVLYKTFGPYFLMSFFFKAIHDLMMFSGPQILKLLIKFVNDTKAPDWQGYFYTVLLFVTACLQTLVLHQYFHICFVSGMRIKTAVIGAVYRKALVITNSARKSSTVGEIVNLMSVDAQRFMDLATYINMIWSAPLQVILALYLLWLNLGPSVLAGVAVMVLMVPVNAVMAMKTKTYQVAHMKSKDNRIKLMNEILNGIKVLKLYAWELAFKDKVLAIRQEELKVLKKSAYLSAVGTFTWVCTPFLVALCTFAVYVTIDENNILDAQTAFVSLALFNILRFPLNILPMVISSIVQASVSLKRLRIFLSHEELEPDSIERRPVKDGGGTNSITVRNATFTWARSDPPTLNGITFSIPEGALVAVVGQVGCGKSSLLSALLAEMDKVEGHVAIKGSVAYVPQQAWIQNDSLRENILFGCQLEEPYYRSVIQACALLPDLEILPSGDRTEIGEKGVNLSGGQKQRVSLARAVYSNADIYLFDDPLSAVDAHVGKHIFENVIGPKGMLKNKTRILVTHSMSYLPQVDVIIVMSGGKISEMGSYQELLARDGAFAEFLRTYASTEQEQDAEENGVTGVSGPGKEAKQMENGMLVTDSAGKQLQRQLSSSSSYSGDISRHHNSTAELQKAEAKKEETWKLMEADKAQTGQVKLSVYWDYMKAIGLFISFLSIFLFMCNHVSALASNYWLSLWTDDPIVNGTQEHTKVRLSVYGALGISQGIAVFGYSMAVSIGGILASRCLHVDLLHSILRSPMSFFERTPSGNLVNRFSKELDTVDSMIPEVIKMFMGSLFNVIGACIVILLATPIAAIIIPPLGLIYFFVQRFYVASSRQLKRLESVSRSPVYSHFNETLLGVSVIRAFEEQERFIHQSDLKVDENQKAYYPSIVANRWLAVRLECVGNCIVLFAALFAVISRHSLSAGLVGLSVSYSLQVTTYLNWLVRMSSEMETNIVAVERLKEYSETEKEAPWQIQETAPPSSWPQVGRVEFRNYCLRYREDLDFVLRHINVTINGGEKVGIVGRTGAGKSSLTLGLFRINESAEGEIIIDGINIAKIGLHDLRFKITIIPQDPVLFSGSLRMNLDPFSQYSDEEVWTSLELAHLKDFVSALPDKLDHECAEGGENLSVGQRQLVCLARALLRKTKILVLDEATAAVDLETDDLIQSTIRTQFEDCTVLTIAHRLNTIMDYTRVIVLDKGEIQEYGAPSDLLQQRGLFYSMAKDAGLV

| Activity | SMILES |
| --- | --- |
| substrate [+] | CCc1c2c(nc3ccc(O)cc13)-c1cc3c(c(=O)n1C2)COC(=O)[C@]3(O)CC [7-ETHYL-10-HYDROXYCAMPTOTHECIN] |
| substrate [+] | CCc1c2c(nc3ccc(OC(=O)N4CCC(N5CCCCC5)CC4)cc13)-c1cc3c(c(=O)n1C2)COC(=O)[C@]3(O)CC [IRINOTECAN] |
